Residues, ends and D or L forms follow the SMILES beside them.
Columns and labels:
[1] = test system: E. coli BL21 (DE3); experiment: MIC of β-lactam antibiotics by E-test method; format: cell-based; conditions: Escherichia coli, 24 h
[2] = test system: E. coli BL21 (DE3)/pET30a; experiment: MIC of β-lactam antibiotics by E-test method; format: cell-based; conditions: Escherichia coli, 24 h
[3] = test system: E. coli BL21 (DE3)/pET30a-NDM-1; experiment: MIC of β-lactam antibiotics by E-test method; format: cell-based; conditions: Escherichia coli, 24 h
Description: (§1) E. coli BL21(DE3) cells were transformed with the pET30a plasmid encoding the NDM-1 gene (Gen Bank ID: HQ162469). E. coli BL21(DE3)/pET30a-NDM-1 was grown overnight at 37°C in liquid Luria-Bertani (LB) broth containing 50μg/ml kanamycin, 100μg/ml ampicillin and 50μM Zn(NO3)2 to select for E. coli clones containing the plasmid of pET30a-NDM-1. Two strains, E. coli BL21 (DE3)/pET30a-NDM-1 overexpressing NDM-1 and P. aeruginosa isolated from Renmin Hospital of Wuhan University with blaNDM-1 confirmed by PCR (data not shown), were cultured overnight, respectively. The cultures were diluted 1:100, grown to an optical density at 600 nm (OD600) of ~0.6, and spread onto LB agar. After naturally drying for five minutes, E-test strips (AB Biodisk, Solna, Sweden) were applied to the ~150mm Mueller-Hinton (MH) (Tianhe Microbial Agents, Hangzhou, China) agar plates and grown for 24h at 35°C to 37°C without further intervention. The antibiotic strips respectively containing penicillin G, ampicillin, cephalothin, cefuroxime, ceftazidime, cefepime, meropenem, ertapenem, aztreonam were used for testing susceptibility. The results were obtained in accordance with the Clinical and Laboratory Standards Institute (CLSI) guidelines.

[4] = test system: P. aeruginosa with blaNDM-1; experiment: MIC of β-lactam antibiotics by E-test method; format: cell-based; conditions: Pseudomonas aeruginosa, 24 h
Description: as §1

[5] = test system: E. coli BL21 (DE3)/pET30a-NDM-1; experiment: Synergistic antibacterial effect of ertapenem combined with oligopeptide (twofold broth dilution); format: cell-based; conditions: ertapenem alone at 256 μg/ml; NDM-1 strain
Description: E. coli BL21 (DE3)/pET30a-NDM-1 overexpressing NDM-1 and a clinical isolate of P. aeruginosa with blaNDM-1 were also utilized to evaluate the bioactivities of oligopeptides, which reversed NDM-1-mediated β-lactam antibiotics resistance. Determination of antibacterial synergy was performed using a serial twofold dilutions method recommended by CLSI guidelines. E. coli BL21 (DE3)/pET30a was used as a control in the experiment. Minimum inhibitory concentrations (MICs) of the agents were determined by the twofold serial dilution with Mueller-Hinton (MH) broth (Shifeng Biotech Corp., Shanghai, China). For this assay, E. coli BL21 (DE3)/pET30a-NDM-1 was grown overnight in MH broth media containing 50μg/ml kanamycin at 37°C [23]. β-lactam antibiotic and oligopeptide at various concentrations were added to 120μL broth media of a 1:20 dilution of the overnight culture, resulting the final volume of 150μL [24]. The growth of bacterial cultures was set up in 96-well microplates, which incubated at 37°C with constant shaking continuously for 18 h and a reading at 630 nm was taken to determine the MICs of synergistic effect. The lowest antibiotic concentration preventing visible growth was deemed to be the MIC value. […] Every data of reading was repeated thrice, and each experiment mentioned above was performed at least two times.

[6] = biological target: full-length NDM-1 (Klebsiella pneumoniae, UniProt C7C422); experiment: biochemical; conditions: IC50 (Mean±SD), full-length NDM-1, ertapenem 80 μM as substrate, 15 min pre-incubation at 35°C
Description: The full-length NDM-1 enzyme was expressed and purified by a method from a previously published procedure. All the oligopeptides were synthesized by GL Biochem. (Shanghai), Ltd., China, with a purity of >95%. The target of NDM-1 enzyme was pre-incubated with the desired oligopeptide for 15min at 35°C before the assay by adding the inhibitor. The oligopeptides used for testing were dissolved in 10mM phosphate-buffered saline (PBS) buffer (pH7.0), containing dimethyl sulfoxide (DMSO) with the final concentration of 0.25% (V/V). […] Ertapenem (80μM) was used as report substrate. The hydrolysis of the substrate by the NDM-1 was detected by monitoring the variation in absorbance resulting from the opening of the β-lactam ring. All the determinations were made on a spectrophotometer (UV-1750, Shimadzu, Japan) connected to a personal computer. The enzymatic reactions were carried out in a total volume of 100μL. The reaction buffer contained 20mM HEPES buffer, pH7.3, 0.25M NaCl, 1mM 1,4-Dithio-DL-threitol (DTT) (Beinglay Biotech Corp., Wuhan, China), 50μM Zn(NO3)2 and 10mg/ml bovine serum albumin (BSA) preventing NDM-1 denaturation. The ultraviolet (UV) absorbance detector was set at 300 nm, a λ max for ertapenem. The IC50 values were determined more than three times by fitting the concentration dependence of residual enzyme activity to the nonlinear regression (curve fit) using GraphPad Prism (GraphPad Software, La Jolla, America).

Chain of full-length NDM-1 (C7C422 29-270 limits assumed): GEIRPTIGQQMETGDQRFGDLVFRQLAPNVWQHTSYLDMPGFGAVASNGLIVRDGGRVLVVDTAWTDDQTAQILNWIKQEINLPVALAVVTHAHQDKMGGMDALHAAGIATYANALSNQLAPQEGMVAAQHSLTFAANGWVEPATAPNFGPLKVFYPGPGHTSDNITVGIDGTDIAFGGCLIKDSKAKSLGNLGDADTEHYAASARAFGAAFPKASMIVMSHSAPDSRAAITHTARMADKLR

| Compound | MIC [1] [µg/mL] | MIC [2] [µg/mL] | MIC [3] [µg/mL] | MIC [4] [µg/mL] | growth in broth media containing ertapenem [5] | IC50 [6] [µM] |
| --- | --- | --- | --- | --- | --- | --- |
| CC1(C)S[C@@H]2[C@H](NC(=O)[C@H](N)c3ccccc3)C(=O)N2[C@H]1C(=O)O [Ampicillin] | 6 | 8 | > 256 | > 256 | – | – |
| C[C@H]1[C@H](NC(=O)/C(=N\OC(C)(C)C(=O)O)c2csc(N)n2)C(=O)N1S(=O)(=O)O [Aztreonam] | 0.047 | 0.064 | > 256 | > 256 | – | – |
| CO/N=C(\C(=O)N[C@@H]1C(=O)N2C(C(=O)[O-])=C(C[N+]3(C)CCCC3)CS[C@H]12)c1csc(N)n1 [Cefepime] | 0.08 | 0.08 | > 64 | > 64 | – | – |
| CO/N=C(\C(=O)N[C@@H]1C(=O)N2C(C(=O)O)=C(COC(C)=O)CS[C@H]12)c1csc(N)n1 [Cefotaxime] | 0.125 | 0.25 | > 256 | > 256 | – | – |
| CC(C)(O/N=C(\C(=O)N[C@@H]1C(=O)N2C(C(=O)[O-])=C(C[n+]3ccccc3)CS[C@H]12)c1csc(N)n1)C(=O)O [Ceftazidime] | 0.38 | 0.25 | > 256 | > 256 | – | – |
| CO/N=C(\C(=O)N[C@@H]1C(=O)N2C(C(=O)O)=C(COC(N)=O)CS[C@H]12)c1ccco1 [Cefuroxime] | 2 | 3 | > 256 | 256 | – | – |
| CC(=O)OCC1=C(C(=O)O)N2C(=O)[C@@H](NC(=O)Cc3cccs3)[C@H]2SC1 [Cephalothin] | 6 | 4 | > 256 | > 256 | – | – |
| C[C@@H](O)[C@H]1C(=O)N2C(C(=O)O)=C(S[C@@H]3CN[C@H](C(=O)Nc4cccc(C(=O)O)c4)C3)[C@H](C)[C@H]12 [Ertapenem] | 0.094 | 0.094 | > 32 | > 32 | still able to grow | – |
| C[C@@H](O)[C@H]1C(=O)N2C(C(=O)O)=C(S[C@@H]3CN[C@H](C(=O)N(C)C)C3)[C@H](C)[C@H]12 [Meropenem] | 0.032 | 0.047 | > 32 | > 32 | – | – |
| N[C@@H](CS)C(=O)N[C@@H](Cc1c[nH]cn1)C(=O)O [Oligopeptide 1, Cys-His] (H-Cys-His-OH) | – | – | – | – | – | 182 ± 14 |
| N[C@@H](CS)C(=O)N[C@@H](Cc1ccccc1)C(=O)O [Oligopeptide 2, Cys-Phe] (H-Cys-Phe-OH) | – | – | – | – | – | 113 ± 9 |
| N[C@@H](CS)C(=O)N[C@@H](Cc1ccc(O)cc1)C(=O)O [Oligopeptide 3, Cys-Tyr] (H-Cys-Tyr-OH) | – | – | – | – | – | > 300 |
| CC(C)[C@H](NC(=O)[C@@H](N)CS)C(=O)O [Oligopeptide 4, Cys-Val] (H-Cys-Val-OH) | – | – | – | – | – | 235 ± 18 |
| N[C@@H](CS)C(=O)N[C@@H](CC(=O)O)C(=O)O [Oligopeptide 5, Cys-Asp] (H-Cys-Asp-OH) | – | – | – | – | – | 68 ± 5 |
| N[C@@H](CS)C(=O)NCC(=O)N[C@@H](Cc1c[nH]cn1)C(=O)O [Oligopeptide 6, Cys-Gly-His] (H-Cys-Gly-His-OH) | – | – | – | – | – | 263 ± 21 |
| N[C@@H](CS)C(=O)NCC(=O)N[C@@H](Cc1ccccc1)C(=O)O [Oligopeptide 7, Cys-Gly-Phe] (H-Cys-Gly-Phe-OH) | – | – | – | – | – | 144 ± 13 |
| N[C@@H](CS)C(=O)NCC(=O)N[C@@H](Cc1ccc(O)cc1)C(=O)O [Oligopeptide 8, Cys-Gly-Tyr] (H-Cys-Gly-Tyr-OH) | – | – | – | – | – | > 300 |
| CC(C)[C@H](NC(=O)CNC(=O)[C@@H](N)CS)C(=O)O [Oligopeptide 9, Cys-Gly-Val] (H-Cys-Gly-Val-OH) | – | – | – | – | – | 249 ± 21 |
| N[C@@H](CS)C(=O)NCC(=O)N[C@@H](CC(=O)O)C(=O)O [Oligopeptide 10, Cys-Gly-Asp] (H-Cys-Gly-Asp-OH) | – | – | – | – | – | > 300 |
| CC1(C)S[C@@H]2[C@H](NC(=O)Cc3ccccc3)C(=O)N2[C@H]1C(=O)O [Penicillin G] | 12 | 12 | > 32 | > 32 | – | – |

Reference: paper PMC5441612, “Oligopeptides as full-length New Delhi metallo-β-lactamase-1 (NDM-1) inhibitors” (PLoS ONE, 2017)
